Experimental data: patent US8192962B2, “Processes for detecting toxic substances” (Daikin Industries, Ltd., priority 2001, dated 2012)

Test system: Metabolism protein genes
Assay: DNA chip mRNA expression in yeast, metabolism protein genes (Table 7)
Format: cell-based, Saccharomyces cerevisiae S288C
Protocol: Yeast (Saccharomyces cerevisiae S288C (α SUC2mal mel gap2 CUP1)) were incubated at 25° C. on YPD medium (yeast extract 1%, polypepton 2%, glucose 2%). One of toxic chemical substances was added to the cells at logarithmic growth phase, and the cells were further incubated for two hours. Cells were cultured without any chemical substance in the same condition, and were used as control. Concentrations of the chemical substances were defined to inhibit the growth of the yeast but not lead to death.
After completion of the incubation, the culture was centrifuged to collect the cells. To the cells, sodium acetate buffer (50 mM sodium acetate, 10 mM EDTA, 1% SDS) was added, and the mixture was shaken at 65° C. for five minutes, followed by returning to room temperature, and obtaining the supernatant, of which the procedures were repeated two times. To the supernatant, ½ amount of a solution of phenol/chloroform was added, and the mixture was centrifuged to give a supernatant, which was added with an equal amount of chloroform, and the mixture was centrifuged to give a supernatant. To the supernatant, an equal amount of isopropanol containing 0.3 M sodium acetate was added, and the mixture was allowed to stand at room temperature for 30 minutes, after which the mixture was centrifuged to give a sediment of the whole RNAs. Seventy % ethanol was added to the sediment, and the mixture was again centrifuged to give a sediment, which was then dried and dissolved in water. mRNA was isolated from the whole RNAs as followings. In view of the fact that a poly A chain is attached to the 3′ terminus of mRNA, a polynucleotide having a poly T structure which was immobilized on the surface of latex beads was used to trap the mRNA, and then the mRNA was washed and eluted with spine column (Oligotex-dT30<Super>mRNA Purification Kit, Takara). Reverse transcription of the mRNA was conducted with a reverse transcriptase (Super Script II Reverse Transcriptase; catalogue No. 18064-014, GibcoBRL) using fluorescence-labeled nucleotides to give cDNAs that were introduced with Cy3-dUTP or Cy5-dUTP during the reverse transcription.
The labeled cDNAs were dissolved in TE buffer (10mM Tris-HCl/1 mM EDTA, pH8.0), and the solution was dropped on the DNA chip containing the whole genes of yeast (DNA Chip Research Inc. Japan) so that the cDNAs were hybridized on the DNA chip at 65° C. for over 12 hours. The fluoresces intensity of the DNA chip was read with a scanner, and the ratio relative to the fluorescence intensity resulting from the absence of chemical substance was estimated as the following, which is shown in Tables 1 to 9: […]

Compound: [Cl][Pb][Cl] [(4), PbCl2]
- The level of expressed mRNA in the presence of chemical substance/The level of expressed mRNA in the absence of chemical substance (yeast gene YJR155W): 2.5
- The level of expressed mRNA in the presence of chemical substance/The level of expressed mRNA in the absence of chemical substance (yeast gene YKL035W): 1.2
- level of expressed mRNA in the presence/in the absence of chemical substance (yeast gene YKL060C): 1.0
- The level of expressed mRNA in the presence of chemical substance/The level of expressed mRNA in the absence of chemical substance (yeast gene YKL091C): 2.6
- The level of expressed mRNA in the presence of chemical substance/The level of expressed mRNA in the absence of chemical substance (yeast gene YKL104C): 1.2
- level of expressed mRNA in the presence/in the absence of chemical substance (yeast gene YKL148C): 0.7
- The level of expressed mRNA in the presence of chemical substance/The level of expressed mRNA in the absence of chemical substance (yeast gene YKL152C): 0.9
- level of expressed mRNA in the presence/in the absence of chemical substance (yeast gene YKL157W): 1.3
- The level of expressed mRNA in the presence of chemical substance/The level of expressed mRNA in the absence of chemical substance (yeast gene YKL213C): 1.3
- The level of expressed mRNA in the presence of chemical substance/The level of expressed mRNA in the absence of chemical substance (yeast gene YKL215C): 0.8
- level of expressed mRNA in the presence/in the absence of chemical substance (yeast gene YKR034W): 4.7
- The level of expressed mRNA in the presence of chemical substance/The level of expressed mRNA in the absence of chemical substance (yeast gene YLL058W): 0.9
- level of expressed mRNA in the presence/in the absence of chemical substance (yeast gene YLR006C): 6.2
- level of expressed mRNA in the presence/in the absence of chemical substance (yeast gene YLR044C): 0.9
- level of expressed mRNA in the presence/in the absence of chemical substance (yeast gene YLR056W): 0.8
- level of expressed mRNA in the presence/in the absence of chemical substance (yeast gene YLR058C): 2.6
- level of expressed mRNA in the presence/in the absence of chemical substance (yeast gene YLR081W): 3.6
- level of expressed mRNA in the presence/in the absence of chemical substance (yeast gene YLR089C): 0.9
- The level of expressed mRNA in the presence of chemical substance/The level of expressed mRNA in the absence of chemical substance (yeast gene YLR180W): 1.0
- The level of expressed mRNA in the presence of chemical substance/The level of expressed mRNA in the absence of chemical substance (yeast gene YLR273C): 2.4
- level of expressed mRNA in the presence/in the absence of chemical substance (yeast gene YLR284C): 1.9
- The level of expressed mRNA in the presence of chemical substance/The level of expressed mRNA in the absence of chemical substance (yeast gene YLR299W): 1.3
- The level of expressed mRNA in the presence of chemical substance/The level of expressed mRNA in the absence of chemical substance (yeast gene YLR300W): 1.0
- level of expressed mRNA in the presence/in the absence of chemical substance (yeast gene YLR304C): 0.7
- The level of expressed mRNA in the presence of chemical substance/The level of expressed mRNA in the absence of chemical substance (yeast gene YLR307W): 3.3
- The level of expressed mRNA in the presence of chemical substance/The level of expressed mRNA in the absence of chemical substance (yeast gene YLR348C): 1.2
- level of expressed mRNA in the presence/in the absence of chemical substance (yeast gene YLR354C): 1.5
- level of expressed mRNA in the presence/in the absence of chemical substance (yeast gene YLR372W): 0.8
- level of expressed mRNA in the presence/in the absence of chemical substance (yeast gene YML022W): 1.1
- The level of expressed mRNA in the presence of chemical substance/The level of expressed mRNA in the absence of chemical substance (yeast gene YML054C): 3.4
- The level of expressed mRNA in the presence of chemical substance/The level of expressed mRNA in the absence of chemical substance (yeast gene YML070W): 1.9
- The level of expressed mRNA in the presence of chemical substance/The level of expressed mRNA in the absence of chemical substance (yeast gene YML100W): 1.4
- The level of expressed mRNA in the presence of chemical substance/The level of expressed mRNA in the absence of chemical substance (yeast gene YMR008C): 1.0
- level of expressed mRNA in the presence/in the absence of chemical substance (yeast gene YMR011W): 5.5
- level of expressed mRNA in the presence/in the absence of chemical substance (yeast gene YMR015C): 0.9
- The level of expressed mRNA in the presence of chemical substance/The level of expressed mRNA in the absence of chemical substance (yeast gene YMR020W): 1.7
- level of expressed mRNA in the presence/in the absence of chemical substance (yeast gene YMR083W): 1.1
- The level of expressed mRNA in the presence of chemical substance/The level of expressed mRNA in the absence of chemical substance (yeast gene YMR105C): 4.2
- The level of expressed mRNA in the presence of chemical substance/The level of expressed mRNA in the absence of chemical substance (yeast gene YMR189W): 2.8
- level of expressed mRNA in the presence/in the absence of chemical substance (yeast gene YMR205C): 0.8
- level of expressed mRNA in the presence/in the absence of chemical substance (yeast gene YMR261C): 0.8
- The level of expressed mRNA in the presence of chemical substance/The level of expressed mRNA in the absence of chemical substance (yeast gene YMR271C): 2.0
- The level of expressed mRNA in the presence of chemical substance/The level of expressed mRNA in the absence of chemical substance (yeast gene YMR296C): 2.6
- level of expressed mRNA in the presence/in the absence of chemical substance (yeast gene YMR323W): 1.1
- The level of expressed mRNA in the presence of chemical substance/The level of expressed mRNA in the absence of chemical substance (yeast gene YNL012W): 0.8
- level of expressed mRNA in the presence/in the absence of chemical substance (yeast gene YNL025C): 12.8
- The level of expressed mRNA in the presence of chemical substance/The level of expressed mRNA in the absence of chemical substance (yeast gene YNL045W): 1.3
- The level of expressed mRNA in the presence of chemical substance/The level of expressed mRNA in the absence of chemical substance (yeast gene YNL104C): 0.9
- The level of expressed mRNA in the presence of chemical substance/The level of expressed mRNA in the absence of chemical substance (yeast gene YNL106C): 1.5
- The level of expressed mRNA in the presence of chemical substance/The level of expressed mRNA in the absence of chemical substance (yeast gene YNL169C): 1.2
- level of expressed mRNA in the presence/in the absence of chemical substance (yeast gene YNL192W): 1.6
- The level of expressed mRNA in the presence of chemical substance/The level of expressed mRNA in the absence of chemical substance (yeast gene YNL231C): 0.5
- The level of expressed mRNA in the presence of chemical substance/The level of expressed mRNA in the absence of chemical substance (yeast gene YNL322C): 0.8
- The level of expressed mRNA in the presence of chemical substance/The level of expressed mRNA in the absence of chemical substance (yeast gene YNL331C): 1.0
- The level of expressed mRNA in the presence of chemical substance/The level of expressed mRNA in the absence of chemical substance (yeast gene YNL332W): 2.0
- The level of expressed mRNA in the presence of chemical substance/The level of expressed mRNA in the absence of chemical substance (yeast gene YNR019W): 1.2
- The level of expressed mRNA in the presence of chemical substance/The level of expressed mRNA in the absence of chemical substance (yeast gene YNR033W): 1.0
- The level of expressed mRNA in the presence of chemical substance/The level of expressed mRNA in the absence of chemical substance (yeast gene YNR059W): 1.4
- The level of expressed mRNA in the presence of chemical substance/The level of expressed mRNA in the absence of chemical substance (yeast gene YOL058W): 0.9
- level of expressed mRNA in the presence/in the absence of chemical substance (yeast gene YOL086C): 1.1
- level of expressed mRNA in the presence/in the absence of chemical substance (yeast gene YOL108C): 1.9
- level of expressed mRNA in the presence/in the absence of chemical substance (yeast gene YOL116W): 2.8
- The level of expressed mRNA in the presence of chemical substance/The level of expressed mRNA in the absence of chemical substance (yeast gene YOL126C): 1.6
- The level of expressed mRNA in the presence of chemical substance/The level of expressed mRNA in the absence of chemical substance (yeast gene YOL153C): 3.9
- level of expressed mRNA in the presence/in the absence of chemical substance (yeast gene YOL156W): 1.1
- The level of expressed mRNA in the presence of chemical substance/The level of expressed mRNA in the absence of chemical substance (yeast gene YOL165C): 0.9
- level of expressed mRNA in the presence/in the absence of chemical substance (yeast gene YOR002W): 0.9
- level of expressed mRNA in the presence/in the absence of chemical substance (yeast gene YOR085W): 1.0
- The level of expressed mRNA in the presence of chemical substance/The level of expressed mRNA in the absence of chemical substance (yeast gene YOR099W): 1.3
- level of expressed mRNA in the presence/in the absence of chemical substance (yeast gene YOR103C): 1.8
- level of expressed mRNA in the presence/in the absence of chemical substance (yeast gene YOR108W): 0.6
- level of expressed mRNA in the presence/in the absence of chemical substance (yeast gene YOR128C): 2.1
- The level of expressed mRNA in the presence of chemical substance/The level of expressed mRNA in the absence of chemical substance (yeast gene YOR130C): 1.0
- level of expressed mRNA in the presence/in the absence of chemical substance (yeast gene YOR142W): 1.0
- level of expressed mRNA in the presence/in the absence of chemical substance (yeast gene YOR176W): 0.9
- level of expressed mRNA in the presence/in the absence of chemical substance (yeast gene YOR178C): 2.3
- level of expressed mRNA in the presence/in the absence of chemical substance (yeast gene YOR251C): 1.8
- The level of expressed mRNA in the presence of chemical substance/The level of expressed mRNA in the absence of chemical substance (yeast gene YOR336W): 1.0
- The level of expressed mRNA in the presence of chemical substance/The level of expressed mRNA in the absence of chemical substance (yeast gene YOR347C): 2.2
- level of expressed mRNA in the presence/in the absence of chemical substance (yeast gene YOR348C): 2.0
- The level of expressed mRNA in the presence of chemical substance/The level of expressed mRNA in the absence of chemical substance (yeast gene YPL017C): 1.0
- level of expressed mRNA in the presence/in the absence of chemical substance (yeast gene YPL028W): 0.9
- level of expressed mRNA in the presence/in the absence of chemical substance (yeast gene YPL057C): 3.1
- level of expressed mRNA in the presence/in the absence of chemical substance (yeast gene YPL135W): 1.2
- level of expressed mRNA in the presence/in the absence of chemical substance (yeast gene YPL148C): 2.3
- The level of expressed mRNA in the presence of chemical substance/The level of expressed mRNA in the absence of chemical substance (yeast gene YPR026W): 1.3
- level of expressed mRNA in the presence/in the absence of chemical substance (yeast gene YPR113W): 1.3
- level of expressed mRNA in the presence/in the absence of chemical substance (yeast gene YPR165W): 1.0
- The level of expressed mRNA in the presence of chemical substance/The level of expressed mRNA in the absence of chemical substance (yeast gene YPR167C): 0.8
- level of expressed mRNA in the presence/in the absence of chemical substance (yeast gene YPR183W): 0.8
